Laboratory results from patent US9981916B2 (Genentech, Inc., priority 2013, dated 2018).

Biological target: T1, RORc ligand binding domain (Homo sapiens, UniProt P51449)
T1 construct: host or cells: E. coli
T1 sequence (P51449 269-508 limits assumed): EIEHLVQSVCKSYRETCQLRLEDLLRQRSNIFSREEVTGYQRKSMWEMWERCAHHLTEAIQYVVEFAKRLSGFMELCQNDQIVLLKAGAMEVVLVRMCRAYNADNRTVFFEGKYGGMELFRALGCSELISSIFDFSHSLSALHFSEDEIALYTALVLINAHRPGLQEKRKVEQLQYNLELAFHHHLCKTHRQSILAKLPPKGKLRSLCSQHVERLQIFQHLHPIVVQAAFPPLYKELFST
Assay: In vitro RORc ligand binding assay (25-[3H]hydroxycholesterol displacement, filter binding)
Conditions: 6 nM 25-[3H]hydroxycholesterol, 0.6 ug/mL RORc receptor, 3 h at 25° C.
Summary of the method: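 Filter-binding displacement of 6 nM 25-[3H]hydroxycholesterol from RORc receptor (0.6 ug/mL) in 50 mM HEPES pH 7.4, 150 mM NaCl, 5 mM MgCl2, 1 mM DTT, 0.01% BSA, 5% DMSO; 3 h at 25° C. NSB defined with 1 uM 25-hydroxycholesterol; scintillation counting gave Kiapp, IC50 or % inhibition (screening at 1 and 10 uM).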

Structure (SMILES) | IC50 [nM]
CCOC(=O)c1nnc([C@@]23CC[C@@H](c4cc(-c5c(F)cccc5F)nnc42)C3(C)C)o1 [Example 327, ethyl 5-((5R,8R)-3-(2,6-difluorophenyl)-9,9-dimethyl-5,6,7,8-tetrahydro-5,8-methanocinnolin-8-yl)-1,3,4-oxadiazole-2-carboxylate] | 1390
CC1(C)[C@@H]2CC[C@@]1(C(=O)N1CCC(F)(F)C1)c1nnc(-c3c(F)cccc3F)cc12 [Example 207, ((5S,8S)-3-(2,6-difluorophenyl)-9,9-dimethyl-5,6,7,8-tetrahydro-5,8-methanocinnolin-8-yl)(3,3-difluoropyrrolidin-1-yl)methanone] | 191
Cc1nnc([C@@]23CC[C@@H](c4cc(Oc5c(F)cccc5F)nnc42)C3(C)C)o1 [Example 336, 2-((5R,8R)-3-(2,6-difluorophenoxy)-9,9-dimethyl-5,6,7,8-tetrahydro-5,8-methanocinnolin-8-yl)-5-methyl-1,3,4-oxadiazole] | 49
CC1(C)[C@@H]2CC[C@@]1(C(=O)N1CC[C@@H](O)C1)c1nnc(-c3c(F)cccc3F)cc12 [Example 238, ((5S,8S)-3-(2,6-difluorophenyl)-9,9-dimethyl-5,6,7,8-tetrahydro-5,8-methanocinnolin-8-yl)((R)-3-hydroxypyrrolidin-1-yl)methanone] | 236
CN([C@@]12CC[C@@H](c3cc(-c4c(F)cccc4F)nnc31)C2(C)C)S(C)(=O)=O [Example 286, N-((5R,8R)-3-(2,6-difluorophenyl)-9,9-dimethyl-5,6,7,8-tetrahydro-5,8-methanocinnolin-8-yl)-N-methylmethanesulfonamide] | 219
CC1(C)[C@H]2CC[C@]1(c1ncco1)c1nnc(-c3c(F)cccc3F)cc12 [Example 102, (5R,8R)-3-(2,6-difluorophenyl)-9,9-dimethyl-8-(1,3-oxazol-2-yl)-5,6,7,8-tetrahydro-5,8-methanocinnoline] | 17
CC1(C)[C@H]2CC[C@]1(c1ccnn1CCC#N)c1nnc(-c3c(F)cccc3F)cc12 [Example 276, 3-(5-((5R,8S)-3-(2,6-difluorophenyl)-9,9-dimethyl-5,6,7,8-tetrahydro-5,8-methanocinnolin-8-yl)-1H-pyrazol-1-yl)propanenitrile] | 466
CC(C)OC1CN(C(=O)[C@@]23CC[C@@H](c4cc(-c5c(F)cccc5F)nnc42)C3(C)C)C1 [Example 190, ((5R,8R)-3-(2,6-difluorophenyl)-9,9-dimethyl-5,6,7,8-tetrahydro-5,8-methanocinnolin-8-yl)(3-isopropoxyazetidin-1-yl)methanone] | 1840
C[C@H](O)C(=O)N(CCC#N)C[C@@]12CC[C@@H](c3cc(-c4c(F)cccc4F)nnc31)C2(C)C [Example 324, (S)-N-(2-cyanoethyl)-N-(((5R,8S)-3-(2,6-difluorophenyl)-9,9-dimethyl-5,6,7,8-tetrahydro-5,8-methanocinnolin-8-yl)methyl)-2-hydroxypropanamide] | 732

Further lines, results first:

IC50 [nM] | Structure (SMILES)
271 | CC1(C)[C@H]2CC[C@]1(COc1cnccn1)c1nnc(-c3c(F)cccc3F)cc12 [Example 329, (5R,8R)-3-(2,6-difluorophenyl)-9,9-dimethyl-8-((pyrazin-2-yloxy)methyl)-5,6,7,8-tetrahydro-5,8-methanocinnoline]
498 | CC1(C)CCN(C(=O)[C@]23CC[C@H](c4cc(-c5c(F)cccc5F)nnc42)C3(C)C)C1 [Example 237, ((5S,8S)-3-(2,6-difluorophenyl)-9,9-dimethyl-5,6,7,8-tetrahydro-5,8-methanocinnolin-8-yl)(3,3-dimethylpyrrolidin-1-yl)methanone]
33 | CCN(C[C@@]12CC[C@@H](c3cc(-c4c(F)cccc4F)nnc31)C2(C)C)C(=O)CS(C)(=O)=O [Example 318, N-(((5R,8S)-3-(2,6-difluorophenyl)-9,9-dimethyl-5,6,7,8-tetrahydro-5,8-methanocinnolin-8-yl)methyl)-N-ethyl-2-(methylsulfonyl)acetamide]
245 | CC1(C)[C@@H]2CC[C@@]1(CN1CCNC1=O)c1nnc(-c3ccccc3F)cc12 [Example 34, 1-{[(5S,8R)-3-(2-fluorophenyl)-9,9-dimethyl-6,7-dihydro-5,8-methanocinnolin-8(5H)-yl]methyl}imidazolidin-2-one]
3270 | CC1(C)[C@H]2CC[C@]1(C(=O)Nc1ccc(C#N)nc1)c1nnc(-c3ccccc3F)cc12 (stereo in doubt) [Example 169, (5R,8R)-N-(6-cyanopyridin-3-yl)-3-(2-fluorophenyl)-9,9-dimethyl-5,6,7,8-tetrahydro-5,8-methanocinnoline-8-carboxamide]
877 | CCNC[C@@]12CC[C@@H](c3cc(-c4c(F)cccc4F)nnc31)C2(C)C [Example 331, N-(((5R,8S)-3-(2,6-difluorophenyl)-9,9-dimethyl-5,6,7,8-tetrahydro-5,8-methanocinnolin-8-yl)methyl)ethanamine]
189 | CCN(C(=O)CO)C(C)(C)[C@@]12CC[C@@H](c3cc(-c4c(F)cccc4F)nnc31)C2(C)C [Example 271, N-(2-((5R,8S)-3-(2,6-difluorophenyl)-9,9-dimethyl-5,6,7,8-tetrahydro-5,8-methanocinnolin-8-yl)propan-2-yl)-N-ethyl-2-hydroxyacetamide]
2950 | CNC(=O)C1CCCN1C(=O)[C@]12CC[C@H](c3cc(-c4c(F)cccc4F)nnc31)C2(C)C (stereo partly drawn) [Example 243, 1-((5S,8S)-3-(2,6-difluorophenyl)-9,9-dimethyl-5,6,7,8-tetrahydro-5,8-methanocinnoline-8-carbonyl)-N-methylpyrrolidine-2-carboxamide]
437 | CC1(C)[C@H]2CC[C@]1(CN(CC(N)=O)CC(F)F)c1nnc(-c3c(F)cccc3F)cc12 [Example 305, 2-((2,2-difluoroethyl)(((5R,8S)-3-(2,6-difluorophenyl)-9,9-dimethyl-5,6,7,8-tetrahydro-5,8-methanocinnolin-8-yl)methyl)amino) acetamide]
1010 | Cc1nnc(NC(=O)[C@]23CC[C@H](c4cc(-c5c(F)cccc5F)nnc42)C3(C)C)o1 [Example 84, (5S,8S)-3-(2,6-difluorophenyl)-9,9-dimethyl-N-(5-methyl-1,3,4-oxadiazol-2-yl)-6,7-dihydro-5,8-methanocinnoline-8(5H)-carboxamide]
142 | CC1(C)[C@@H]2CC[C@@]1(C(=O)N1CCC(C(F)(F)F)C1)c1nnc(-c3c(F)cccc3F)cc12 (stereo partly drawn) [Example 208, ((5S,8S)-3-(2,6-difluorophenyl)-9,9-dimethyl-5,6,7,8-tetrahydro-5,8-methanocinnolin-8-yl)(3-(trifluoromethyl)pyrrolidin-1-yl)methanone]
3080 | CC(C)(C#N)NC(=O)[C@@]12CC[C@@H](c3cc(-c4ccccc4F)nnc31)C2(C)C [Example 174, (5R,8R)-N-(2-cyanopropan-2-yl)-3-(2-fluorophenyl)-9,9-dimethyl-5,6,7,8-tetrahydro-5,8-methanocinnoline-8-carboxamide]
146 | Cn1nccc1[C@@]12CC[C@@H](c3cc(-c4c(F)cccc4F)nnc31)C2(C)C [Example 275, (5R,8S)-3-(2,6-difluorophenyl)-9,9-dimethyl-8-(1-methyl-1H-pyrazol-5-yl)-5,6,7,8-tetrahydro-5,8-methanocinnoline]
